Reference: PubChem BioAssay AID248 (DTP/NCI, 2004)
Values joined by “and” are separate entries in the source; they are usually repeats but may differ in a detail not shown here. Equal values may be shown once. Toxic doses and inconclusive results are not listed. Rule as the data show it: active = T/C of 150% or more; inactive = T/C below 125%.

Tested on: L1210 leukemia ip in BDF1 mice, survival T/C
Test: NCI In Vivo Anticancer Drug Screen. Data for tumor model L1210 Leukemia (intraperitoneal) in B6D2F1 (BDF1) mice
Settings: endpoint: mean survival time, higher = longer survival
How it was run: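 Mice bearing the transplanted tumor received compound or vehicle. Survival of the treated group was divided by that of the vehicle-treated control group to give the ratio.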

[1] = dose: 6.25 mg/kg/injection, schedule: Q01DX009 (ip), vehicle: saline
[2] = dose: 12.5 mg/kg/injection, schedule: Q01DX009 (ip), vehicle: saline
[3] = dose: 100.0 mg/kg/injection, schedule: Q04DX003 (ip), vehicle: Klucel (hydroxypropylcellulose) (HPC)
[4] = dose: 50.0 mg/kg/injection, schedule: Q01DX009 (ip), vehicle: saline with Tween-80
[5] = dose: 25.0 mg/kg/injection, schedule: Q04DX003 (ip), vehicle: Klucel (hydroxypropylcellulose) (HPC)
[6] = dose: 25.0 mg/kg/injection, schedule: Q01DX009 (ip), vehicle: Klucel (hydroxypropylcellulose) (HPC)
[7] = dose: 50.0 mg/kg/injection, schedule: Q01DX009 (ip), vehicle: Klucel (hydroxypropylcellulose) (HPC)
[8] = dose: 100.0 mg/kg/injection, schedule: Q01DX009 (ip), vehicle: Klucel (hydroxypropylcellulose) (HPC)
[9] = dose: 100.0 mg/kg/injection, schedule: Q04DX002 (ip), vehicle: Klucel (hydroxypropylcellulose) (HPC)
[10] = dose: 200.0 mg/kg/injection, schedule: Q04DX002 (ip), vehicle: Klucel (hydroxypropylcellulose) (HPC)
[11] = dose: 400.0 mg/kg/injection, schedule: Q04DX002 (ip), vehicle: Klucel (hydroxypropylcellulose) (HPC)
[12] = dose: 50.0 mg/kg/injection, schedule: Q04DX002 (ip), vehicle: Klucel (hydroxypropylcellulose) (HPC)

Measured: T/C

CCCCCCCCCCCCNCCCCCCCCCCCC
inactive: dose: 3.12 mg/kg/injection, schedule: Q01DX009 (ip), vehicle: saline 102 % of control | [1] 97 % of control | dose: 6.25 mg/kg/injection, schedule: Q04DX003 (ip), vehicle: acetone 100 % of control | dose: 12.5 mg/kg/injection, schedule: Q01DX001 (ip), vehicle: saline 93 % of control | [2] 102 % of control | dose: 12.5 mg/kg/injection, schedule: Q04DX003 (ip), vehicle: acetone 96 % of control | dose: 25.0 mg/kg/injection, schedule: Q01DX001 (ip), vehicle: saline 93 % of control | dose: 100.0 mg/kg/injection, schedule: Q01DX009 (ip), vehicle: other 105 % of control | dose: 200.0 mg/kg/injection, schedule: Q01DX009 (ip), vehicle: other 105 % of control | dose: 400.0 mg/kg/injection, schedule: Q01DX009 (ip), vehicle: other 93 % of control

Cc1cc(C(C)(C)C)c(OC(=S)N(C)C)c(C(C)(C)C)c1
inactive: dose: 12.5 mg/kg/injection, schedule: Q04DX003 (ip), vehicle: saline with Tween-80 96 % of control | dose: 25.0 mg/kg/injection, schedule: Q04DX003 (ip), vehicle: saline with Tween-80 94 % of control | dose: 50.0 mg/kg/injection, schedule: Q04DX003 (ip), vehicle: saline with Tween-80 100 % of control

COC(=O)c1ccc2c(ccc[n+]2C)c1
inactive: dose: 37.5 mg/kg/injection, schedule: Q04DX003 (ip), vehicle: saline with Tween-80 96 % of control | dose: 75.0 mg/kg/injection, schedule: Q01DX001 (ip), vehicle: saline 97 % of control | dose: 75.0 mg/kg/injection, schedule: Q04DX003 (ip), vehicle: saline with Tween-80 96 % of control | dose: 150.0 mg/kg/injection, schedule: Q01DX001 (ip), vehicle: saline 90 % of control | dose: 150.0 mg/kg/injection, schedule: Q04DX003 (ip), vehicle: saline with Tween-80 89 % of control

O=c1cc(-c2ccccc2)[nH]c2ccc(S(=O)(=O)O)cc12
inactive: [3] 93 % of control | dose: 200.0 mg/kg/injection, schedule: Q04DX003 (ip), vehicle: Klucel (hydroxypropylcellulose) (HPC) 106 % of control | dose: 400.0 mg/kg/injection, schedule: Q04DX003 (ip), vehicle: Klucel (hydroxypropylcellulose) (HPC) 96 % of control

C=CCc1ccc(OC(=O)Nc2cccc(C)c2)c(OC)c1
inactive: [4] 98 % of control | dose: 100.0 mg/kg/injection, schedule: Q01DX009 (ip), vehicle: saline with Tween-80 112 % of control | dose: 100.0 mg/kg/injection, schedule: Q04DX002 (ip), vehicle: saline with Tween-80 99 % of control | dose: 200.0 mg/kg/injection, schedule: Q01DX009 (ip), vehicle: saline with Tween-80 101 % of control and 102 % of control | dose: 200.0 mg/kg/injection, schedule: Q04DX002 (ip), vehicle: saline with Tween-80 89 % of control

CCOC(=O)CC(C)=O.[Cu+2]
inactive: [1] 96 % of control | [2] 104 % of control | dose: 12.5 mg/kg/injection, schedule: Q04DX003 (ip), vehicle: Klucel (hydroxypropylcellulose) (HPC) 94 % of control | dose: 25.0 mg/kg/injection, schedule: Q01DX009 (ip), vehicle: saline 90 % of control | [5] 96 % of control

c1coc(-c2ncnc3c2Cc2ccccc2-3)c1
inactive: [6] 96 % of control | [5] 98 % of control | [7] 91 % of control | dose: 50.0 mg/kg/injection, schedule: Q04DX003 (ip), vehicle: Klucel (hydroxypropylcellulose) (HPC) 91 % of control | [8] 102 % of control | [3] 100 % of control

CC(=O)OC1C=CCC23C(=O)C=CC(=O)C12C(=O)c1ccccc1C3=O (centres undefined)
inactive: dose: 0.25 mg/kg/injection, schedule: Q04DX003 (ip), vehicle: water 95 % of control | dose: 0.5 mg/kg/injection, schedule: Q04DX003 (ip), vehicle: water 100 % of control | dose: 1.0 mg/kg/injection, schedule: Q04DX003 (ip), vehicle: water 102 % of control | dose: 2.0 mg/kg/injection, schedule: Q04DX003 (ip), vehicle: water 97 % of control | dose: 4.0 mg/kg/injection, schedule: Q04DX003 (ip), vehicle: water 102 % of control | dose: 8.0 mg/kg/injection, schedule: Q04DX003 (ip), vehicle: water 100 % of control | dose: 16.0 mg/kg/injection, schedule: Q04DX003 (ip), vehicle: saline 102 % of control | dose: 16.0 mg/kg/injection, schedule: Q04DX003 (ip), vehicle: water 97 % of control | dose: 32.0 mg/kg/injection, schedule: Q04DX003 (ip), vehicle: saline 100 % of control | dose: 64.0 mg/kg/injection, schedule: Q04DX003 (ip), vehicle: saline 100 % of control

Cn1c2c(c(=O)n(C)c1=O)CCC(=O)N2
inactive: [9] 106 % of control | [10] 98 % of control | [11] 92 % of control

CC(=O)C(Cl)C(C)=O.CC(=O)CC(C)=O.CC(=O)CC(C)=O.[Rh]
inactive: dose: 50.0 mg/kg/injection, schedule: Q01DX001 (ip), vehicle: other 108 % of control | dose: 100.0 mg/kg/injection, schedule: Q01DX001 (ip), vehicle: other 102 % of control | dose: 200.0 mg/kg/injection, schedule: Q01DX001 (ip), vehicle: other 98 % of control | dose: 400.0 mg/kg/injection, schedule: Q01DX001 (ip), vehicle: other 98 % of control

CCCCC#CC(=O)OCCCC
inactive: dose: 100.0 mg/kg/injection, schedule: Q04DX002 (ip), vehicle: saline 94 % of control | dose: 200.0 mg/kg/injection, schedule: Q04DX002 (ip), vehicle: saline 97 % of control | dose: 400.0 mg/kg/injection, schedule: Q04DX002 (ip), vehicle: saline 102 % of control

Cc1cc(=O)[nH]c(N=Nc2c(O)[nH]c3ccccc23)n1
inactive: dose: 100.0 mg/kg/injection, schedule: Q01DX001 (ip), vehicle: carboxymethylcellulose (CMC) 98 % of control | dose: 200.0 mg/kg/injection, schedule: Q01DX001 (ip), vehicle: carboxymethylcellulose (CMC) 93 % of control | dose: 400.0 mg/kg/injection, schedule: Q01DX001 (ip), vehicle: carboxymethylcellulose (CMC) 88 % of control

CCN(CC)c1ccc(N=Nc2ncn[nH]2)c(O)c1
inactive: dose: 100.0 mg/kg/injection, schedule: Q01DX001 (ip), vehicle: saline with Tween-80 100 % of control | dose: 200.0 mg/kg/injection, schedule: Q01DX001 (ip), vehicle: saline with Tween-80 98 % of control | dose: 400.0 mg/kg/injection, schedule: Q01DX001 (ip), vehicle: saline with Tween-80 88 % of control

CCCCSCCN
inactive: dose: 75.0 mg/kg/injection, schedule: Q01DX009 (ip), vehicle: Klucel (hydroxypropylcellulose) (HPC) 95 % of control | dose: 150.0 mg/kg/injection, schedule: Q01DX009 (ip), vehicle: Klucel (hydroxypropylcellulose) (HPC) 93 % of control

Oc1ccccc1C=NCCN=Cc1ccccc1O.[CH3][Sn]([CH3])([Cl])[Cl]
inactive: dose: 12.5 mg/kg/injection, schedule: Q01DX009 (ip), vehicle: saline with Tween-80 102 % of control | dose: 25.0 mg/kg/injection, schedule: Q01DX009 (ip), vehicle: saline with Tween-80 110 % of control | [4] 107 % of control

COc1cccc2cc([N+](=O)[O-])oc12
inactive: [6] 98 % of control | [7] 93 % of control | [12] 105 % of control | [8] 101 % of control | [9] 94 % of control | [10] 101 % of control

CCCCS(=O)(=O)c1ccc(OC)c(NC(C)=O)c1
inactive: dose: 75.0 mg/kg/injection, schedule: Q04DX003 (ip), vehicle: Klucel (hydroxypropylcellulose) (HPC) 103 % of control | dose: 100.0 mg/kg/injection, schedule: Q01DX001 (ip), vehicle: Klucel (hydroxypropylcellulose) (HPC) 98 % of control | dose: 150.0 mg/kg/injection, schedule: Q04DX003 (ip), vehicle: Klucel (hydroxypropylcellulose) (HPC) 96 % of control | dose: 200.0 mg/kg/injection, schedule: Q01DX001 (ip), vehicle: Klucel (hydroxypropylcellulose) (HPC) 107 % of control | dose: 300.0 mg/kg/injection, schedule: Q04DX003 (ip), vehicle: Klucel (hydroxypropylcellulose) (HPC) 107 % of control | dose: 400.0 mg/kg/injection, schedule: Q01DX001 (ip), vehicle: Klucel (hydroxypropylcellulose) (HPC) 100 % of control

COc1ccc(/C=N\NC(=O)c2ccncc2)cc1OC
inactive: [12] 101 % of control | [9] 106 % of control | [10] 109 % of control | [11] 103 % of control
